“And” between values parts separate entries of the source, which are not always exact repeats. Identical values can stand only once. Like-named read-outs stand apart in the source and are kept apart here.
Tests used:
[1] = test system: Calu-6; assay: Growth inhibition of Calu-6 cells, products alone (IC50) and in combination (CI, Chou and Talalay); format: cell-based; conditions: for IC50 (order of magnitude, in words): the cell lines tested (Calu-6 and NCI-H460)
Procedure: (§1) 1) Prior determination of the IC50 of the products taken in isolation on the cell lines.
(§2) Different concentration ratios were established, which were tested on the different cell lines.
(§3) For each cell line three tests were carried out.

[2] = test system: NCI-H460; assay: Growth inhibition of NCI-H460 cells, products alone (IC50) and in combination (CI, Chou and Talalay); format: cell-based; conditions: Avandia alone
Procedure: as §1, §2, §3

[3] = test system: Calu-6; assay: Fraction affected (Fa) and synergy index (CI) on lung cell line Calu-6, betaine citrate/metformin; format: cell-based
From the text: The cell line adopted for carrying out the experiment is the line Calu-6.
These Fa values are used in the calculation of the synergy index (CI) which makes it possible to report the presence or absence of synergy between the products.

[4] = test system: type L1210 intra-peritoneal lymphoma; assay: Mortality of mice carrying type L1210 intra-peritoneal lymphoma; format: in vivo; conditions: for Ratio % Treated/controls (T/C%): median survival times; for anti-tumour effectiveness (in words): T/C% greater than 125%
Procedure: Mice carrying a type L1210 intra-peritoneal lymphoma were treated for 7 days in parallel with the following preparations: • SYN857 (A): chlorophosphoenol pyruvate • SYN856 (B): chlorophosphoenol pyruvate and carnitine ester • BCNU: carmustine • Vehicle: control
The weight of the animals for each group as well as the individual weight curves as a function of time were plotted and the mortality of the animals was monitored.
The parameter T/C% is calculated with the ratio of the median survival time of the animals in the group considered to the median survival time of the animals in the control group, all multiplied by 100.

[5] = product alone at 0.10 mM, three experiments
[6] = product alone at 0.20 mM, three experiments
[7] = product alone at 1.00 mM, three experiments
[8] = product alone at 2.00 mM, three experiments
[9] = product alone at 4.00 mM, three experiments

Compound	IC50 (order of magnitude, in words) [1]	Fa Exp 1 ([3]; product alone at 0.05 mM)	Fa Exp 1 ([3]; product alone at 0.10 mM)	Fa Exp 3 ([3]; product alone at 0.10 mM)	Average Fa [3, 5]	Fa Exp 1 ([3]; product alone at 0.20 mM)	Fa Exp 3 ([3]; product alone at 0.20 mM)	Average Fa [3, 6]	Fa Exp 1 ([3]; product alone at 0.25 mM)	Fa Exp 2 ([3]; product alone at 0.25 mM)	Fa Exp 3 ([3]; product alone at 0.25 mM)	Fa Exp 1 ([3]; product alone at 0.50 mM)	Fa Exp 2 ([3]; product alone at 0.50 mM)	Fa Exp 3 ([3]; product alone at 0.50 mM)	Fa Exp 1 ([3]; product alone at 1.00 mM)	Fa Exp 2 ([3]; product alone at 1.00 mM)	Fa Exp 3 ([3]; product alone at 1.00 mM)	Average Fa [3, 7]	Fa Exp 1 ([3]; product alone at 2.00 mM)	Fa Exp 2 ([3]; product alone at 2.00 mM)	other results
CN(CCOc1ccc(CC2SC(=O)NC2=O)cc1)c1ccccn1 (centres unmarked) [Avandia ®, rosiglitazone]	of the order of ten micromols																				IC50 ([1]; Calu-6, Avandia alone): 14.1 µM; IC50 [2]: 8.84 µM
CN(C)C(=N)N=C(N)N [Met, metformin]		0.03	0.08	0.04	0.06	0.04	0.06	0.05	0.06	0.06	0.08	0.08	0.09	0.13	0.18	0.19	0.25	0.21	0.03	0.31	Average Fa [3]: 0.07 and 0.10; Fa Exp 2 ([3]; product alone at 0.20 mM): 0.04; Fa Exp 3 ([3]; product alone at 2.00 mM): 0.36; Average Fa [3, 8]: 0.32; Fa Exp 1 ([3]; product alone at 4.00 mM): 0.36; Fa Exp 2 ([3]; product alone at 4.00 mM): 0.40; Fa Exp 3 ([3]; product alone at 4.00 mM): 0.46; Average Fa [3, 9]: 0.41
betaine citrate [Betain citrate]	of the order of a millimol	0.00	0.00	0.00	0.02	0.12	0.00	0.01	0.02	0.08	0.00	0.31	0.15	0.26	0.59	0.18	0.63	0.24	0.69	0.37	Fa Exp 2 ([3]; product alone at 0.10 mM): 0.02; Average Fa ([3]; product alone at 0.25 mM, three experiments): 0.06; Average Fa ([3]; product alone at 0.50 mM, three experiments): 0.03; Fa Exp 3 ([3]; product alone at 2.00 mM): 0.77; Average Fa [3, 8]: 0.47; Fa Exp 1 ([3]; product alone at 4.00 mM): 0.77; Fa Exp 2 ([3]; product alone at 4.00 mM): 0.61; Fa Exp 3 ([3]; product alone at 4.00 mM): 0.83; Average Fa [3, 9]: 0.61
O=NN(CCCl)C(=O)NCCCl [BCNU ®, carmustine]																					Ratio % Treated/controls (T/C%) ([4]; 15 mg/kg/inj.): >128.5%; Number of dead mice ([4]; 15 mg/kg/inj., positive control): 0; Number of dead mice ([4]; 15 mg/kg/inj., positive control, listed as BCNU): still alive
chlorophosphoenol pyruvate [SYN857]																					Average number of days of survival ± SD ([4]; 70 mg/kg/inj.): 8.78 ± 0.42 days; Median value ([4]; 70 mg/kg/inj.): 9 days; Ratio % Treated/controls (T/C%) ([4]; 70 mg/kg/inj.): >128.5%; Number of dead mice ([4]; 70 mg/kg/inj., out of 10 mice, at 9 days): 9; Average number of days of survival ± SD ([4]; 136 mg/kg/inj.): 9.00 ± 00.0 days; Median value ([4]; 136 mg/kg/inj.): 9 days; Ratio % Treated/controls (T/C%) ([4]; 136 mg/kg/inj.): >128.5%; Number of dead mice ([4]; 136 mg/kg/inj., out of 10 mice, at 9 days): 4; anti-tumour effectiveness (in words) ([4]; L1210 lymphoma mice): anti-tumour effectiveness
chlorophosphoenol pyruvate and carnitine ester [SYN856]																					Average number of days of survival ± SD ([4]; 30 mg/kg/inj.): 9.00 ± 0.00 days; Median value ([4]; 30 mg/kg/inj.): 9 days; Ratio % Treated/controls (T/C%) ([4]; 30 mg/kg/inj.): >128.5%; Average number of days of survival ± SD ([4]; 60 mg/kg/inj.): 9.00 ± 0.00 days; Median value ([4]; 60 mg/kg/inj.): 9 days; Ratio % Treated/controls (T/C%) ([4]; 60 mg/kg/inj.): >128.5%; Number of dead mice ([4]; 60 mg/kg/inj., out of 10 mice, at 9 days): 6; effective concentration compared with chlorophosphoenol pyruvate alone (in words) ([4]; L1210 lymphoma mice): effective at a lower concentration than chlorophosphoenol pyruvate alone; anti-tumour effectiveness (in words) ([4]; L1210 lymphoma mice): anti-tumour effectiveness

Source: patent US20070280918A1, “Multitherapy Against Cancer” (priority 2004, published 2007)
